How the values were obtained:
[1] = Growth inhibition of human NCI-ADR-RES cells at 10 uM after 48 hrs by sulforhodamine B assay; type: functional; settings: read-out: GI
SNB-75 = assay: Growth inhibition of human SNB75 cells at 10 uM after 48 hrs by sulforhodamine B assay; type: functional; settings: SNB-75, 48 h, read-out: GI
Malme-3M = assay: Growth inhibition of human MALME-3M cells at 10 uM after 48 hrs by sulforhodamine B assay; type: functional; settings: read-out: GI
OVCAR-4 = assay: Growth inhibition of human OVCAR4 cells at 10 uM after 48 hrs by sulforhodamine B assay; type: functional; settings: OVCAR-4, 48 h, read-out: GI
HOP-92 = assay: Growth inhibition of human HOP92 cells at 10 uM after 48 hrs by sulforhodamine B assay; type: functional; settings: HOP-92, 48 h, read-out: GI
SR = assay: Growth inhibition of human SR cells at 10 uM after 48 hrs by sulforhodamine B assay; type: functional; settings: read-out: GI
786-0 = assay: Growth inhibition of human 786-0 cells at 10 uM after 48 hrs by sulforhodamine B assay; type: functional; settings: 786-0, 48 h, read-out: GI
MOLT-4 = assay: Growth inhibition of human MOLT4 cells at 10 uM after 48 hrs by sulforhodamine B assay; type: functional; settings: MOLT-4, 48 h, read-out: GI
HL-60(TB) = assay: Growth inhibition of human HL-60(TB) cells at 10 uM after 48 hrs by sulforhodamine B assay; type: functional; settings: HL-60, 48 h, read-out: GI
MCF7 = assay: Growth inhibition of human MCF7 cells at 10 uM after 48 hrs by sulforhodamine B assay; type: functional; settings: MCF7, 48 h, read-out: GI
LOX IMVI = assay: Growth inhibition of human LOXIMVI cells at 10 uM after 48 hrs by sulforhodamine B assay; type: functional; settings: read-out: GI
SF-295 = assay: Growth inhibition of human SF295 cells at 10 uM after 48 hrs by sulforhodamine B assay; type: functional; settings: SF-295, 48 h, read-out: GI
T47D = assay: Growth inhibition of human T47D cells at 10 uM after 48 hrs by sulforhodamine B assay; type: functional; settings: read-out: GI
UO-31 = assay: Growth inhibition of human UO31 cells at 10 uM after 48 hrs by sulforhodamine B assay; type: functional; settings: UO-31, 48 h, read-out: GI
MDA-MB-435 = assay: Growth inhibition of human MDA-MB-435 cells at 10 uM after 48 hrs by sulforhodamine B assay; type: functional; settings: MDA-MB-435, 48 h, read-out: GI
COLO 205 = assay: Growth inhibition of human COLO205 cells at 10 uM after 48 hrs by sulforhodamine B assay; type: functional; settings: COLO 205, 48 h, read-out: GI
MDA-MB-468 = assay: Growth inhibition of human MDA-MB-468 cells at 10 uM after 48 hrs by sulforhodamine B assay; type: functional; settings: MDA-MB-468, 48 h, read-out: GI
UACC-62 = assay: Growth inhibition of human UACC62 cells at 10 uM after 48 hrs by sulforhodamine B assay; type: functional; settings: UACC-62, 48 h, read-out: GI
RXF 393 = assay: Growth inhibition of human RXF393 cells at 10 uM after 48 hrs by sulforhodamine B assay; type: functional; settings: RXF 393, 48 h, read-out: GI
HCT-15 = assay: Growth inhibition of human HCT15 cells at 10 uM after 48 hrs by sulforhodamine B assay; type: functional; settings: HCT-15, 48 h, read-out: GI
A498 = assay: Growth inhibition of human A498 cells at 10 uM after 48 hrs by sulforhodamine B assay; type: functional; settings: A498, 48 h, read-out: GI
MDA-MB-231 = assay: Growth inhibition of human MDA-MB-231 cells at 10 uM after 48 hrs by sulforhodamine B assay; type: functional; settings: MDA-MB-231, 48 h, read-out: GI
CAKI-1 = assay: Growth inhibition of human CAKI-1 cells at 10 uM after 48 hrs by sulforhodamine B assay; type: functional; settings: CAKI-1, 48 h, read-out: GI
K562 = assay: Growth inhibition of human K562 cells at 10 uM after 48 hrs by sulforhodamine B assay; type: functional; settings: K562, 48 h, read-out: GI
HCT-116 = assay: Growth inhibition of human HCT116 cells at 10 uM after 48 hrs by sulforhodamine B assay; type: functional; settings: HCT-116, 48 h, read-out: GI
PC-3 = assay: Growth inhibition of human PC3 cells at 10 uM after 48 hrs by sulforhodamine B assay; type: functional; settings: PC-3, 48 h, read-out: GI
KM12 = assay: Growth inhibition of human KM12 cells at 10 uM after 48 hrs by sulforhodamine B assay; type: functional; settings: KM12, 48 h, read-out: GI
NCI-H522 = assay: Growth inhibition of human NCI-H522 cells at 10 uM after 48 hrs by sulforhodamine B assay; type: functional; settings: NCI-H522, 48 h, read-out: GI
CCRF-CEM = assay: Growth inhibition of human CCRF-CEM cells at 10 uM after 48 hrs by sulforhodamine B assay; type: functional; settings: read-out: GI
RPMI-8226 = assay: Growth inhibition of human RPMI8226 cells at 10 uM after 48 hrs by sulforhodamine B assay; type: functional; settings: RPMI-8226, 48 h, read-out: GI
HOP-62 = assay: Growth inhibition of human HOP62 cells at 10 uM after 48 hrs by sulforhodamine B assay; type: functional; settings: HOP-62, 48 h, read-out: GI
SK-MEL-5 = assay: Growth inhibition of human SK-MEL-5 cells at 10 uM after 48 hrs by sulforhodamine B assay; type: functional; settings: SK-MEL-5, 48 h, read-out: GI
Ovis aries = organism: Ovis aries; assay: Inhibition of sheep brain tubulin polymerization at 100 uM using DAPI by fluorimetry

| SMILES | inhibition of growth at 10 µM [1] | inhibition of growth at 10 µM (SNB-75) | inhibition of growth at 10 µM (Malme-3M) | inhibition of growth at 10 µM (OVCAR-4) | inhibition of growth at 10 µM (HOP-92) | inhibition of growth at 10 µM (SR) | inhibition of growth at 10 µM (786-0) | inhibition of growth at 10 µM (MOLT-4) | inhibition of growth at 10 µM (HL-60(TB)) | inhibition of growth at 10 µM (MCF7) | inhibition of growth at 10 µM (LOX IMVI) | inhibition of growth at 10 µM (SF-295) | inhibition of growth at 10 µM (T47D) | inhibition of growth at 10 µM (UO-31) | inhibition of growth at 10 µM (MDA-MB-435) | inhibition of growth at 10 µM (COLO 205) | inhibition of growth at 10 µM (MDA-MB-468) | inhibition of growth at 10 µM (UACC-62) | inhibition of growth at 10 µM (RXF 393) | inhibition of growth at 10 µM (HCT-15) | other results |
| --- | --- | --- | --- | --- | --- | --- | --- | --- | --- | --- | --- | --- | --- | --- | --- | --- | --- | --- | --- | --- | --- |
| CC(=O)c1cn(C(=O)N2c3ccccc3Sc3ccccc32)c2ccccc12 | 4.9% | 6% | 7.6% | 0% | 24.9% | 31.4% | 6.7% | 16.9% | 16.5% | 0% | 9% | 0.9% | 25.1% | 24.2% | 3% | 1.6% | 14% | 16% | 7% | 8.4% | inhibition of growth at 10 µM (A498): 1.3%; inhibition of growth at 10 µM (MDA-MB-231): 0%; inhibition of growth at 10 µM (CAKI-1): 14%; inhibition of growth at 10 µM (K562): 26.2%; inhibition of growth at 10 µM (HCT-116): 6.8%; inhibition of growth at 10 µM (PC-3): 18.3%; inhibition of growth at 10 µM (KM12): 6.6%; inhibition of growth at 10 µM (NCI-H522): 17%; inhibition of growth at 10 µM (CCRF-CEM): 7.2%; inhibition of growth at 10 µM (RPMI-8226): 35.5%; inhibition of growth at 10 µM (HOP-62): 13.3%; inhibition of growth at 10 µM (SK-MEL-5): 8.5% |
| O=C(c1cc2cc(F)ccc2[nH]1)N1c2ccccc2Sc2ccccc21 | 15.6% | 20.6% | 3.9% | 14.8% | 4.2% | 56.9% | 11.2% | 31.8% | 1.3% | 3.4% | 33.6% | 5.7% | 10.1% | 21.6% | 3.2% | 0% | 11.6% | 25.6% | 7.7% | 45.8% | inhibition (Ovis aries): 32%; inhibition of growth at 10 µM (A498): 19.1%; inhibition of growth at 10 µM (MDA-MB-231): 23.8%; inhibition of growth at 10 µM (CAKI-1): 17.3%; inhibition of growth at 10 µM (K562): 34.6%; inhibition of growth at 10 µM (HCT-116): 46.1%; inhibition of growth at 10 µM (PC-3): 44.7%; inhibition of growth at 10 µM (KM12): 1.7%; inhibition of growth at 10 µM (NCI-H522): 0%; inhibition of growth at 10 µM (CCRF-CEM): 10.1%; inhibition of growth at 10 µM (RPMI-8226): 5.8%; inhibition of growth at 10 µM (HOP-62): 20.6%; inhibition of growth at 10 µM (SK-MEL-5): 24.5% |
